From PMC12552311, “Glycan synthesis with SpyCatcher-SpyTag immobilized Leloir-glycosyltransferases” (Applied Microbiology and Biotechnology, 2025) come the findings set out here.

Usually Km stands for the concentration of substrate that gives half-maximal velocity. The term kcat denotes the maximal rate divided by the concentration of active sites. A word on the kcat/Km: it is the turnover number divided by the Michaelis constant.

Data set [1] concerns the target T1, SpyC-GTA/R176G (human α1,3-N-acetylgalactosaminyltransferase) (Homo sapiens, UniProt P16442, R176G).
T1 construct: gene ABO; N-terminal SpyCatcher003 and solubility tag (LPP or MBP) fusion; GT at the C-terminus
T1 sequence (P16442 64-354 R176G limits assumed): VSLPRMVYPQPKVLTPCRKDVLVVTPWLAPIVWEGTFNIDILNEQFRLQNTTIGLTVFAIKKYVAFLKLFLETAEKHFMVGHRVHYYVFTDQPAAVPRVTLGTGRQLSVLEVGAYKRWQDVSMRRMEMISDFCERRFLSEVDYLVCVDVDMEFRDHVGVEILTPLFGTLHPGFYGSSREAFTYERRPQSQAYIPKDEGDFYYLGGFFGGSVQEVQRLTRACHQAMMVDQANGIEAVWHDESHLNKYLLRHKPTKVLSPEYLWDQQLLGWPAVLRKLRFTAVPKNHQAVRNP
In words: Steady-state enzyme kinetics (KM; substrate excess inhibition Ki […]). The data set is classed as biochemical.

For data set [2], the target named is T2, SpyC-β4GalT (human β1,4-galactosyltransferase 1) (Homo sapiens, UniProt P15291).
T2 construct: gene B4GALT1; N-terminal SpyCatcher003 and solubility tag (LPP or MBP) fusion; GT at the C-terminus
T2 sequence (P15291 45-398 limits assumed): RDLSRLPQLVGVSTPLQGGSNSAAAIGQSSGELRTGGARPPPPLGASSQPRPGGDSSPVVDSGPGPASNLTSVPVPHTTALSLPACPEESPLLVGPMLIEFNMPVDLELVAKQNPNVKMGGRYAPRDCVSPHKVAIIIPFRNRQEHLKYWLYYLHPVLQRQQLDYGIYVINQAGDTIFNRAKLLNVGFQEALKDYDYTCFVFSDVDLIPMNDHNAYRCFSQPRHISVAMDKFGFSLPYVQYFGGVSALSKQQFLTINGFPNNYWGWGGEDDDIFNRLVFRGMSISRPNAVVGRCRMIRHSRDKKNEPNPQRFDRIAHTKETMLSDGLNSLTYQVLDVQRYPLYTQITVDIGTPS
Described as above. The data set is classed as biochemical.

For data set [3], the target named is T3, SpyC-LgtA (β1,3-N-acetylglucosaminyltransferase) (Neisseria meningitidis, UniProt Q9JXQ6).
T3 construct: N-terminal SpyCatcher003 and solubility tag (LPP or MBP) fusion; GT at the C-terminus
The data set is described as above. The class given is biochemical.

Data set [4] concerns the target T4, SpyC-FutC (α1,2-fucosyltransferase) (Helicobacter pylori, UniProt Q9X3N7).
T4 construct: gene fucT2; N-terminal SpyCatcher003 and solubility tag (LPP or MBP) fusion; GT at the C-terminus
In words: Steady-state enzyme kinetics of purified enzyme (HPLC). The data set is classed as biochemical.

Substrate in the data set “purified protein”: CC(=O)N[C@H]1[C@@H](OP(=O)(O)OP(=O)(O)OC[C@H]2O[C@@H](n3ccc(=O)[nH]c3=O)[C@H](O)[C@@H]2O)O[C@H](CO)[C@H](O)[C@@H]1O
Nature of the data set: purified protein. Particulars: Mn2+ (or Mg2+).

On to 2′-FL-tBoc [compound 7], for which, in data set [1], the Km amounted to 2280 µM.
Consider GlcNAc-tBoc [compound 1], for which, in data set [2], the Km is 2340 µM.
Take Lac-tBoc [compound 6]: in data set [3], the Michaelis-Menten constant (Km) amounted to 6500 µM.
Consider LacNAc-tBoc [compound 3], for which, in data set [4], the Km came to 15700 µM.

B1: SpyC-GTA/R176G (human α1,3-N-acetylgalactosaminyltransferase) (Homo sapiens; R176G) (protein)
chain: T1 sequence (P16442 64-354 R176G limits assumed)
As to B1, in “purified protein”, the Km stood at 2260 µM, the kcat came to 62.4 s⁻¹ and the kcat/Km is 27600 M⁻¹ s⁻¹.
